Reference: the supplement of paper PMC6045584
± gives the standard deviation of the averaged measurements.

Key:
[1] = compound: COc1cc2nccc(Oc3ccc(NC(=O)NC4CC4)c(Cl)c3)c2cc1C(N)=O [LENVATINIB]; assay: surviving fraction relative to DMSO-only wells; higher = less growth inhibition; settings: exposure time: 5 days
Procedure, shortened: (§1)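 Surviving fraction was calculated by normalising CellTiter-Glo luminescence to the median of DMSO-only wells. Tumour cell lines in log phase were seeded in 384-well plates at 250–500 cells per well, and 24 hours later were exposed continuously for five days to inhibitors at 0.5, 1, 5, 10, 50, 100, 500 and 1000 nM.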

[2] = compound: Cn1c(=O)n(-c2ccc(C(C)(C)C#N)cc2)c2c3cc(-c4cnc5ccccc5c4)ccc3ncc21 [BEZ-235]; assay: as above; settings: exposure time: 5 days
Procedure, shortened: as §1

| Test System | surviving fraction ([1]; 0.5 nM) | surviving fraction ([1]; 1 nM) | surviving fraction ([1]; 5 nM) | surviving fraction ([1]; 10 nM) | surviving fraction ([1]; 50 nM) | surviving fraction ([1]; 100 nM) | surviving fraction ([1]; 500 nM) | surviving fraction ([1]; 1000 nM) | surviving fraction ([2]; 0.5 nM) | surviving fraction ([2]; 1 nM) | surviving fraction ([2]; 5 nM) | surviving fraction ([2]; 10 nM) | surviving fraction ([2]; 50 nM) | surviving fraction ([2]; 100 nM) | surviving fraction ([2]; 500 nM) | surviving fraction ([2]; 1000 nM) |
| --- | --- | --- | --- | --- | --- | --- | --- | --- | --- | --- | --- | --- | --- | --- | --- | --- |
| CAL72 BONE | 1.14 ± 0.086 | 1.12 ± 0.046 | 1.14 ± 0.088 | 1.12 ± 0.062 | 1.16 ± 0.069 | 1.18 ± 0.12 | 1.01 ± 0.13 | 0.613 ± 0.051 | 1.05 ± 0.026 | 1.06 ± 0.041 | 1.07 ± 0.043 | 1.03 ± 0.041 | 0.754 ± 0.053 | 0.369 ± 0.021 | 0.142 ± 0.011 | 0.124 ± 0.0079 |
| CAL120 BREAST | 0.968 ± 0.014 | 0.984 ± 0.028 | 1.01 ± 0.023 | 1.01 ± 0.024 | 0.9848 ± 0.0086 | 0.984 ± 0.028 | 0.866 ± 0.024 | 0.753 ± 0.049 | 0.962 ± 0.022 | 0.9768 ± 0.0038 | 0.98 ± 0.011 | 0.911 ± 0.017 | 0.502 ± 0.029 | 0.296 ± 0.0058 | 0.102 ± 0.0053 | 0.0963 ± 0.0037 |
| CASKI CERVIX | 0.944 ± 0.077 | 0.98 ± 0.096 | 0.988 ± 0.014 | 1.01 ± 0.019 | 1.026 ± 0.0064 | 1.08 ± 0.063 | 0.985 ± 0.073 | 0.956 ± 0.073 | 0.872 ± 0.028 | 0.922 ± 0.016 | 0.896 ± 0.065 | 0.882 ± 0.081 | 0.452 ± 0.021 | 0.292 ± 0.0061 | 0.127 ± 0.0064 | 0.096 ± 0.0036 |
| CHLA90 AUTONOMIC GANGLIA | 0.984 ± 0.039 | 0.999 ± 0.043 | 0.954 ± 0.05 | 1 ± 0.077 | 0.972 ± 0.049 | 0.939 ± 0.051 | 1.05 ± 0.043 | 1.04 ± 0.034 | 0.983 ± 0.078 | 1 ± 0.033 | 0.979 ± 0.057 | 0.947 ± 0.05 | 0.644 ± 0.046 | 0.428 ± 0.024 | 0.175 ± 0.0087 | 0.106 ± 0.0023 |
| CME SYNOVIAL | 1.28 ± 0.14 | 1.25 ± 0.12 | 1.18 ± 0.092 | 1.17 ± 0.3 | 1.22 ± 0.076 | 1.1 ± 0.038 | 0.847 ± 0.074 | 0.91 ± 0.029 | 1.18 ± 0.12 | 1.28 ± 0.12 | 1.16 ± 0.066 | 1.26 ± 0.11 | 1.3 ± 0.11 | 1.12 ± 0.087 | 0.959 ± 0.076 | 0.713 ± 0.14 |
| COLO320DM LARGE INTESTINE | 1.16 ± 0.058 | 1.1 ± 0.077 | 1.05 ± 0.053 | 1.1 ± 0.18 | 1.17 ± 0.033 | 1.1 ± 0.072 | 1.14 ± 0.067 | 1.11 ± 0.068 | 1.06 ± 0.059 | 1.12 ± 0.08 | 1.14 ± 0.074 | 1.06 ± 0.039 | 0.869 ± 0.07 | 0.692 ± 0.034 | 0.328 ± 0.018 | 0.192 ± 0.0043 |
| DU4475 BREAST | 1.02 ± 0.26 | 1.12 ± 0.21 | 0.991 ± 0.23 | 0.994 ± 0.17 | 0.935 ± 0.22 | 1.06 ± 0.16 | 0.912 ± 0.2 | 0.994 ± 0.26 | 0.914 ± 0.16 | 1.05 ± 0.13 | 0.919 ± 0.16 | 0.835 ± 0.1 | 0.525 ± 0.064 | 0.194 ± 0.018 | 0.0427 ± 0.0085 | 0.035 ± 0.0035 |
| H23 LUNG | 1.03 ± 0.054 | 1.05 ± 0.06 | 1.06 ± 0.079 | 1.05 ± 0.08 | 1.05 ± 0.049 | 1.12 ± 0.074 | 1.15 ± 0.068 | 1.17 ± 0.069 | 1.02 ± 0.051 | 1.04 ± 0.081 | 0.961 ± 0.057 | 0.903 ± 0.042 | 0.496 ± 0.055 | 0.382 ± 0.033 | 0.22 ± 0.015 | 0.194 ± 0.0072 |
| HCC78 LUNG | 1.08 ± 0.28 | 1.02 ± 0.24 | 0.93 ± 0.32 | 1.04 ± 0.22 | 1.08 ± 0.044 | 1.07 ± 0.22 | 1.02 ± 0.1 | 0.978 ± 0.14 | 0.953 ± 0.086 | 0.943 ± 0.17 | 1.05 ± 0.23 | 1.09 ± 0.15 | 0.621 ± 0.18 | 0.393 ± 0.05 | 0.0757 ± 0.011 | 0.0527 ± 0.01 |
| HCC202 BREAST | 1.04 ± 0.13 | 0.977 ± 0.21 | 1.1 ± 0.33 | 1.32 ± 0.17 | 0.801 ± 0.56 | 1.15 ± 0.18 | 0.783 ± 0.6 | 0.946 ± 0.25 | 1.02 ± 0.32 | 1.07 ± 0.036 | 1.21 ± 0.22 | 1.34 ± 0.32 | 1.07 ± 0.32 | 0.722 ± 0.27 | 0.388 ± 0.089 | 0.232 ± 0.046 |
